Values of other authors in patent US20230157586A1 (United States Government as Represented by the Department …, priority 2021, published 2023).
Positions count from the first letter of the chain named.

Experiments:
albumin = albumin (Homo sapiens, UniProt P02768); conditions: 37° C.; same for each subject
[1] = target: T1, corticosteroid binding globulin (CBG) (Homo sapiens, UniProt P08185); conditions: 37° C.; same for each subject
T1 sequence (P08185 23-405): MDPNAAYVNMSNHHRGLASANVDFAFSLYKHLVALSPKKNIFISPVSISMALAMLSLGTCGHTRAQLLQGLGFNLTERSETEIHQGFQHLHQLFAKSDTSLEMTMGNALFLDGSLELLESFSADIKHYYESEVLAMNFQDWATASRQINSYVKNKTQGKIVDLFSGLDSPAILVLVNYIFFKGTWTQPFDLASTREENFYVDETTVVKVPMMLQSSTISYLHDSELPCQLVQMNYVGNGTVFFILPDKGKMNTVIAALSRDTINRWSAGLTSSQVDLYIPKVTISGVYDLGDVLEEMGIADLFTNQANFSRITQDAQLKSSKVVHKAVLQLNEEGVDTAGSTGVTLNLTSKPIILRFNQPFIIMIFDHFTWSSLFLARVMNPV

[2] = target: T2, mutant CBG protein (GLy237Val substitution, SERPINA6) (Homo sapiens, UniProt P08185, G259V); conditions: previously reported; higher equilibrium dissociation constant KD
T2 sequence (P08185 23-405 G259V): T1 sequence (P08185 23-405) with G237V

Sequence of albumin (P02768 25-609): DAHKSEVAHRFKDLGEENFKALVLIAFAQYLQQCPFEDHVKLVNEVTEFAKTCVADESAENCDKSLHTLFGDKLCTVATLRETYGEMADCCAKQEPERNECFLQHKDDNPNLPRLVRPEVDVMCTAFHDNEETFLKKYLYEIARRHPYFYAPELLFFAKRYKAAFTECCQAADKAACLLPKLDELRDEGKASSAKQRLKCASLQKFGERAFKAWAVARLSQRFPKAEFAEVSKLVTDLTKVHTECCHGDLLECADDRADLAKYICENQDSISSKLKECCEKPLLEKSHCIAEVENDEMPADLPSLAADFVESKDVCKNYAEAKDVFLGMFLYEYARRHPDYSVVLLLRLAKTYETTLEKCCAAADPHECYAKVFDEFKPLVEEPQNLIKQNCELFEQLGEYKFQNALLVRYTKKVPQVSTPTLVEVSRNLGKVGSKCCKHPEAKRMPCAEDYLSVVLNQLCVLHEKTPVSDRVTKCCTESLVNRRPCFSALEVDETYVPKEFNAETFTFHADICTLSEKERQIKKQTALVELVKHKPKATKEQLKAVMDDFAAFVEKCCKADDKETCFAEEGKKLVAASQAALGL

C[C@]12CCC(=O)C=C1CC[C@@H]1[C@@H]2[C@@H](O)C[C@@]2(C)[C@H]1CC[C@]2(O)C(=O)CO [cortisol]
κ1^A association rate constant (on-rate), albumin (albumin): 8950 M/s
κ−1^A dissociation rate constant (off-rate), albumin (albumin): 2.2 s⁻¹
κ1^C association rate constant (on-rate), CBG [1]: 3.62e+07 M/s
κ−1^C dissociation rate constant (off-rate), CBG [1]: 0.88 s⁻¹
cortisol binding affinity of mutant CBG compared to wild type CBG protein [2]: markedly decreased cortisol binding affinity
